Test results from ChEMBL document CHEMBL3112432, “Synthesis of 5α-cholestan-6-one derivatives and their inhibitory activities of NO production in activated microglia: discovery of a novel neuroinflammation inhibitor” (Bioorg Med Chem Lett, 2014).
The source made the active and inactive calls. The calls are words filed in the database; no cut-off is given here.

Assays:
[1] = tested on: Mus musculus; assay: Neuroprotective activity in mouse middle cerebral artery occlusion model assessed as reduction in activated microglial cells in medial periphery of cortical infarct area at 30 mg/kg, ip administered 1 hr prior to onset of ischemia measured after 24 hrs by Iba-1 staining-based microscopic analysis; assay type: functional, organism-based; design: dose 30 mg/kg
[2] = tested on: Mus musculus; assay: Neuroprotective activity in ip dosed mouse middle cerebral artery occlusion model assessed as reduction in infarction volume administered 1 hr prior to onset of ischemia measured after 24 hrs by TTC staining-based microscopic analysis; assay type: functional, organism-based
[3] = tested on: BV-2; assay: Antiinflammatory activity in mouse BV2 cells assessed as inhibition of LPS-stimulated COX-2 protein expression at 40 uM preincubated for 30 mins followed by LPS-stimulation measured after 16 hrs by Western blotting analysis; assay type: functional, cell-based
[4] = tested on: BV-2; assay: Antiinflammatory activity in mouse BV2 cells assessed as inhibition of LPS-stimulated iNOS protein expression at 40 uM preincubated for 30 mins followed by LPS-stimulation measured after 16 hrs by Western blotting analysis; assay type: functional, cell-based
[5] = tested on: BV-2; assay: Antiinflammatory activity in mouse BV2 cells assessed as inhibition of LPS-stimulated COX-2 mRNA expression preincubated for 30 mins followed by LPS-stimulation by RT-PCR analysis; assay type: functional, cell-based
[6] = tested on: BV-2; assay: Antiinflammatory activity in mouse BV2 cells assessed as inhibition of LPS-stimulated TNF-alpha mRNA expression preincubated for 30 mins followed by LPS-stimulation by RT-PCR analysis; assay type: functional, cell-based
[7] = tested on: BV-2; assay: Antiinflammatory activity in mouse BV2 cells assessed as inhibition of LPS-stimulated iNOS mRNA expression preincubated for 30 mins followed by LPS-stimulation by RT-PCR analysis; assay type: functional, cell-based
[8] = tested on: BV-2; assay: Antiinflammatory activity in mouse BV2 cells assessed as inhibition of LPS-stimulated IL-1beta mRNA expression preincubated for 30 mins followed by LPS-stimulation by RT-PCR analysis; assay type: functional, cell-based
[9] = tested on: BV-2; assay: Antiinflammatory activity in LPS-stimulated mouse BV2 cells assessed as inhibition of NO production after 24 hrs by Griess method; assay type: functional, cell-based
[10] = Antiinflammatory activity in LPS-stimulated mouse BV2 cells assessed as inhibition of NO production at 40 uM after 24 hrs by Griess method relative to control; assay type: functional; details: BV-2, 24 h
[11] = Cytotoxicity against mouse BV2 cells assessed as cell viability at 40 uM after 24 hrs by MTT assay relative to control; assay type: cell-based, BV-2; details: read-out: Activity

Compound: COC(=O)CC[C@@H](C)[C@H]1CC[C@H]2[C@@H]3[C@H](O)C(=O)[C@H]4C[C@H](O)CC[C@]4(C)[C@H]3CC[C@]12C
- Activity [1]: Active
- Activity [2]: Dose-dependent effect
- inhibition [3]: Active
- inhibition [4]: Active
- inhibition [5]: Dose-dependent effect
- inhibition [6]: Dose-dependent effect
- inhibition [7]: Dose-dependent effect
- inhibition [8]: Dose-dependent effect
- inhibition [9]: Dose-dependent effect
- inhibition at 40 µM [10]: 73.6%
- viability at 24 h, 40 µM [11]: 95.4%
